Assay results: US20240360150A1, “ISOINDOLINONE COMPOUNDS AND USES THEREOF” (HANGZHOU GLUBIO PHARMACEUTICAL CO. LTD., priority 2021, published 2024)

Each compound was assayed against T1, HiBiT-tagged IKZF1 (Homo sapiens, UniProt Q13422+Q96SW2) (assay: Degradation assay for IKZF1 (HiBiT tag bioluminescence assay)). Conditions: HT-1080, Table 1; HT-1080 IKZF1 HiBiT reporter cells; maximum percentage of protein degradation.
T1 construct: expressed in transfected cells; host or cells: HT-1080 (ATCC CCL-121), lentiviral transduction
Assay type: cell-based
Experimental: (§1) About 10,000 cells in complete DMEM cell culture media were seeded per well. Assay plates were incubated at 37° C. with 5% CO2 for hours, followed by the assessment of IKZF1 or SALL4 degradation using the Nano-Glo HiBiT Lytic Detection Reagent (Cat #N3050, Promega) according to the manufacturer's instruction. Luminescence was then measured with an EnVision plate reader (PerkinElmer) or a PHERAstar plate reader (BMG Labtech). All IKZF1 or SALL4 degradation curves were processed using Collaborative Drug Discovery Vault softwares. IKZF1 or SALL4 levels in compound-treated wells were normalized to that of DMSO control and expressed as Percent of Control (PoC, y). A four Parameter Logistic Model was used to determine the compound's EC50 and DC50, using the following equation:
(§2) A=Ymin (lowest IKZF1 or SALL4 level normalized to DMSO control in response to compound treatment, as determined by curve fit)
(§3) B=Ymax (IKZF1 or SALL4 level in DMSO control)
(§4) C=EC50 half degradation concentration
(§5) EC50=the concentration of compound when y=(Ymax−Ymin)/2
(§6) DC50=test sample concentration when IKZF1 or SALL4 readings y=50% DMSO-treated samples
(§7) y=IKZF1 or SALL4 readings after test sample treatment (normalized to IKZF1 or SALL4 readings in DMSO-treated samples)
(§8) Dmax represents the maximum percentage of IKZF1 or SALL4 protein degradation induced by compound treatment.

T1 sequence (Q13422 whole entry): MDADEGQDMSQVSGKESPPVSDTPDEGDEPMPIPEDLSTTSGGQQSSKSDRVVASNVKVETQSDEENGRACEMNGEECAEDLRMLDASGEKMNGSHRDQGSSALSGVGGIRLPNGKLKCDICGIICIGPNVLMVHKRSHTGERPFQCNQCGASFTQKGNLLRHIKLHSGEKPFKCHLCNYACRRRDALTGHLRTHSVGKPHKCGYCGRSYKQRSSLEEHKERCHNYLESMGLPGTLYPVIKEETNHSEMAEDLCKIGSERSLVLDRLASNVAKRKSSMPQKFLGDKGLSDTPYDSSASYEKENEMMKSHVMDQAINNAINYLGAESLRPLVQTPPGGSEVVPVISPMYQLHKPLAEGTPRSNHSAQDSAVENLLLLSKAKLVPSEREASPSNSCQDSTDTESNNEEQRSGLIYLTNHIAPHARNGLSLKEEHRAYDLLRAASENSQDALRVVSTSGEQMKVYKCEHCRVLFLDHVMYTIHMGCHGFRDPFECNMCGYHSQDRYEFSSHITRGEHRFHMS
T1 sequence (Q96SW2 whole entry): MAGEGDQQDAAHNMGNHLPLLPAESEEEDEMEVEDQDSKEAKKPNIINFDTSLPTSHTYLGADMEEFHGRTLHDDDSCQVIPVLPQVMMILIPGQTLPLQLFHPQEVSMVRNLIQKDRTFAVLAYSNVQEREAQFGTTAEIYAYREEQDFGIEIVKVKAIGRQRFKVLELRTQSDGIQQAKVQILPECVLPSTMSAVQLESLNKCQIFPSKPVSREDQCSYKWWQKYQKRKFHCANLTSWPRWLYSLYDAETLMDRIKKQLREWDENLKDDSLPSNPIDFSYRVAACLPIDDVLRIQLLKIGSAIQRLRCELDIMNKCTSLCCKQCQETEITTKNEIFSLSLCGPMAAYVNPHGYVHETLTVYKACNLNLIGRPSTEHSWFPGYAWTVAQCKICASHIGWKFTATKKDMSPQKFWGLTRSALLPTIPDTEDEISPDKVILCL
T1 sequence (Q16531 whole entry partner): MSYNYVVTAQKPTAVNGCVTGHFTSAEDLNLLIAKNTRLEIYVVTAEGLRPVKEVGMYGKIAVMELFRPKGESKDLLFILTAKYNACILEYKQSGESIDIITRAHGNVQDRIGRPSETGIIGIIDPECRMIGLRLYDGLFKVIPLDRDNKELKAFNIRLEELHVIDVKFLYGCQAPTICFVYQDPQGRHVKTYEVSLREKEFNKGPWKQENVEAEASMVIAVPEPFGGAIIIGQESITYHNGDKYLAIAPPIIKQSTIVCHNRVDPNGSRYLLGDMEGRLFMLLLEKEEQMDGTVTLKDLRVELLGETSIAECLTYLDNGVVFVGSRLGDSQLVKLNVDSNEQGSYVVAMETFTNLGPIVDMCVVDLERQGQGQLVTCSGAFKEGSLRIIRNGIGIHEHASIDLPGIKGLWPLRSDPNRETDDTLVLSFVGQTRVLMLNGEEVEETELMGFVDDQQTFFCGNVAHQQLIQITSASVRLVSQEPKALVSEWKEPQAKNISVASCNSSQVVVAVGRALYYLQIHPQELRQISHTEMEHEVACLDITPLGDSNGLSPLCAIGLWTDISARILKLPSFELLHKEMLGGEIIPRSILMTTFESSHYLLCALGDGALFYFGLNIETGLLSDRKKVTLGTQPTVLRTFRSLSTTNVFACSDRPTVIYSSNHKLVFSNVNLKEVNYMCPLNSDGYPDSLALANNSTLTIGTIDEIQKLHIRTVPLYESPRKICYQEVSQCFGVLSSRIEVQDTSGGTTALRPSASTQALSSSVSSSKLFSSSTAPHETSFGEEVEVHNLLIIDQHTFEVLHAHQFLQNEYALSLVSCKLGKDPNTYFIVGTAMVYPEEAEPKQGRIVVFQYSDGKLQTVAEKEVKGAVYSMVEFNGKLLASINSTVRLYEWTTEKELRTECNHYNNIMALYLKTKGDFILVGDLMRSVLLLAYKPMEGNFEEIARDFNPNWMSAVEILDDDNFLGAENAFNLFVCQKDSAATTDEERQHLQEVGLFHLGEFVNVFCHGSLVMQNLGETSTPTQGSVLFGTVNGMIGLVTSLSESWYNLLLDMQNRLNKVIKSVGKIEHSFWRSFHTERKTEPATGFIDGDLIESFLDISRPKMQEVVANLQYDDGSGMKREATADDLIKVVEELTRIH

**Q.** How did the Dmax turn out when `N#Cc1ccc(N2CCN(Cc3ccc(Cc4ccc5c6c(cc(F)cc46)C(=O)N5[C@@H]4CCC(=O)NC4=O)cc3)CC2)c(F)c1` (single isomer, unassigned) [Compound 9-A] was run?
**A.** The Dmax was 89.9%.

**Q.** Which Dmax does the source give for `N#Cc1ccc2c(c1)OC[C@H]1CN(Cc3ccc(Cc4ccc5c6c(cc(F)cc46)C(=O)N5C4CCC(=O)NC4=O)cc3)CCN21` (stereo partly shown) [Compound 1] here?
**A.** Its Dmax is 93.2%.

**Q.** For `N#Cc1ccc2c(c1)OC[C@H]1CN(Cc3ccc(Cc4ccc5c6c(cc(F)cc46)C(=O)N5C4CCC(=O)NC4=O)cn3)CCN21` (stereo partly shown) [Compound 2], which Dmax is on record?
**A.** Its Dmax is 91.8%.

**Q.** `N#Cc1ccc2c(c1)OC[C@H]1CN(Cc3ccc(Cc4ccc5c6c(cccc46)C(=O)N5C4CCC(=O)NC4=O)cc3)CCN21` (stereo partly shown) [Compound 3] was tested. Which Dmax did it give?
**A.** Its Dmax is 93.3%.

**Q.** How did the Dmax turn out when `N#Cc1cnc2c(c1)OC[C@H]1CN(Cc3ccc(Cc4ccc5c6c(cccc46)C(=O)N5C4CCC(=O)NC4=O)c(F)c3)CCN21` (stereo partly shown) [Compound 4] was run?
**A.** Its Dmax is 93.5%.

Same assay, conditions: HT-1080, Table 2; HT-1080 IKZF1 HiBiT reporter cells; all compounds tested on the same day

**Q.** For `N#Cc1ccc(N2CCN(Cc3ccc(Cc4ccc5c6c(cc(F)cc46)C(=O)N5[C@@H]4CCC(=O)NC4=O)cc3)CC2)c(F)c1` (single isomer, unassigned) [Compound 9-A], which Dmax is on record?
**A.** Its Dmax is 93.1%.

Same assay, conditions: Table 1; HT-1080 IKZF1 HiBiT reporter cells; performed once with technical duplicates, some compounds tested on different days; read-out: HiBiT IKZF1: DC50

**Q.** How did the DC50 turn out when `N#Cc1ccc(N2CCN(Cc3ccc(Cc4ccc5c6c(cc(F)cc46)C(=O)N5[C@@H]4CCC(=O)NC4=O)cc3)CC2)c(F)c1` (single isomer, unassigned) [Compound 9-A] was run?
**A.** The DC50 was 0.23 nM.

**Q.** How did the DC50 turn out when `N#Cc1ccc2c(c1)OC[C@H]1CN(Cc3ccc(Cc4ccc5c6c(cc(F)cc46)C(=O)N5C4CCC(=O)NC4=O)cc3)CCN21` (stereo partly shown) [Compound 1] was run?
**A.** Its DC50 is 0.025 nM.

**Q.** `N#Cc1ccc2c(c1)OC[C@H]1CN(Cc3ccc(Cc4ccc5c6c(cc(F)cc46)C(=O)N5C4CCC(=O)NC4=O)cn3)CCN21` (stereo partly shown) [Compound 2] was tested. Which DC50 did it give?
**A.** Its DC50 is 0.022 nM.

**Q.** For `N#Cc1ccc2c(c1)OC[C@H]1CN(Cc3ccc(Cc4ccc5c6c(cccc46)C(=O)N5C4CCC(=O)NC4=O)cc3)CCN21` (stereo partly shown) [Compound 3], which DC50 is on record?
**A.** Its DC50 is 0.038 nM.

**Q.** With `N#Cc1cnc2c(c1)OC[C@H]1CN(Cc3ccc(Cc4ccc5c6c(cccc46)C(=O)N5C4CCC(=O)NC4=O)c(F)c3)CCN21` (stereo partly shown) [Compound 4] as the compound, how does the DC50 read?
**A.** Its DC50 is 0.026 nM.

Same assay, conditions: Table 2; HT-1080 IKZF1 HiBiT reporter cells; all compounds tested on the same day; read-out: HiBiT IKZF1: DC50

**Q.** `N#Cc1ccc(N2CCN(Cc3ccc(Cc4ccc5c6c(cc(F)cc46)C(=O)N5[C@@H]4CCC(=O)NC4=O)cc3)CC2)c(F)c1` (single isomer, unassigned) [Compound 9-A] was tested. Which DC50 did it give?
**A.** Its DC50 is 0.185 nM.

What follows are compounds tested against T2, HiBiT-tagged SALL4 (Homo sapiens, UniProt Q96SW2+Q9UJQ4) (assay: Degradation assay for SALL4 (HiBiT tag bioluminescence assay)). Conditions: HT-1080, Table 1; HT-1080 SALL4 HiBiT reporter cells; maximum percentage of protein degradation.
T2 construct: expressed in transfected cells; host or cells: HT-1080 (ATCC CCL-121), lentiviral transduction
Assay type: cell-based
Experimental: as §1, §2, §3, §4, §5, §6, §7, §8

T2 sequence (Q9UJQ4 whole entry): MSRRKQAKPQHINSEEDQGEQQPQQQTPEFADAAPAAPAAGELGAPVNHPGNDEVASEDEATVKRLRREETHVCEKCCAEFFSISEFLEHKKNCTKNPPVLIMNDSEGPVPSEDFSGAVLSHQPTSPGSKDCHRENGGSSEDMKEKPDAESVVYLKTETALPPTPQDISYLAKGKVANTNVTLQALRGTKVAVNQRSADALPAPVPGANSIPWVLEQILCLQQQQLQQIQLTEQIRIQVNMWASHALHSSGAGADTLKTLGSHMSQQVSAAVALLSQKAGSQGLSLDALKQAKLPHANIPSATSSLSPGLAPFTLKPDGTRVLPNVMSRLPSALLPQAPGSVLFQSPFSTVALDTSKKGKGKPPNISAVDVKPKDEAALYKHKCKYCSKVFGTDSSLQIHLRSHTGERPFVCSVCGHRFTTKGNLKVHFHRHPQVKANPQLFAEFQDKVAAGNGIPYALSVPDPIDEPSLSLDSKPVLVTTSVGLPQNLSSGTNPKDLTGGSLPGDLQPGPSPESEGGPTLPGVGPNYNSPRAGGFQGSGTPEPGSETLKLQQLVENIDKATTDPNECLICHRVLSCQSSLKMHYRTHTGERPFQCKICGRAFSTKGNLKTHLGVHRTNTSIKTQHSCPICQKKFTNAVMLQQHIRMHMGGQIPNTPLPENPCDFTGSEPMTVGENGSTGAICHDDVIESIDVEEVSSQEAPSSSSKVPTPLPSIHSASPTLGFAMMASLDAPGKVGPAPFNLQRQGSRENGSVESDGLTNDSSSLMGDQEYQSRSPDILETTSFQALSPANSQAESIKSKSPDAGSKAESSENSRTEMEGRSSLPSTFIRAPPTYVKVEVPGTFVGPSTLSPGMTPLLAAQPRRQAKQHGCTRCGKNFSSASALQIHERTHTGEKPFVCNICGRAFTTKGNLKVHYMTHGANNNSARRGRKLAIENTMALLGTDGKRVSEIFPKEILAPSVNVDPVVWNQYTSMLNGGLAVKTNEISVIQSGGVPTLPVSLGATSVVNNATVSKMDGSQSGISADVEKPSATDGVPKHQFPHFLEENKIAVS
T2 sequence (Q96SW2 whole entry): as the sequence (Q96SW2 whole entry) above
T2 sequence (Q16531 whole entry partner): as the sequence (Q16531 whole entry partner) above

**Q.** With `N#Cc1ccc(N2CCN(Cc3ccc(Cc4ccc5c6c(cc(F)cc46)C(=O)N5[C@@H]4CCC(=O)NC4=O)cc3)CC2)c(F)c1` (single isomer, unassigned) [Compound 9-A] as the compound, how does the Dmax read?
**A.** The Dmax was 55.2%.

**Q.** How did the Dmax turn out when `N#Cc1ccc2c(c1)OC[C@H]1CN(Cc3ccc(Cc4ccc5c6c(cc(F)cc46)C(=O)N5C4CCC(=O)NC4=O)cc3)CCN21` (stereo partly shown) [Compound 1] was run?
**A.** Its Dmax is 57.4%.

**Q.** With `N#Cc1ccc2c(c1)OC[C@H]1CN(Cc3ccc(Cc4ccc5c6c(cc(F)cc46)C(=O)N5C4CCC(=O)NC4=O)cn3)CCN21` (stereo partly shown) [Compound 2] as the compound, how does the Dmax read?
**A.** Its Dmax is 53.2%.

**Q.** How did the Dmax turn out when `N#Cc1ccc2c(c1)OC[C@H]1CN(Cc3ccc(Cc4ccc5c6c(cccc46)C(=O)N5C4CCC(=O)NC4=O)cc3)CCN21` (stereo partly shown) [Compound 3] was run?
**A.** Its Dmax is 68%.

**Q.** For `N#Cc1cnc2c(c1)OC[C@H]1CN(Cc3ccc(Cc4ccc5c6c(cccc46)C(=O)N5C4CCC(=O)NC4=O)c(F)c3)CCN21` (stereo partly shown) [Compound 4], which Dmax is on record?
**A.** The Dmax was 68.6%.

Same assay, conditions: HT-1080, Table 2; HT-1080 SALL4 HiBiT reporter cells; all compounds tested on the same day

**Q.** `N#Cc1ccc(N2CCN(Cc3ccc(Cc4ccc5c6c(cc(F)cc46)C(=O)N5[C@@H]4CCC(=O)NC4=O)cc3)CC2)c(F)c1` (single isomer, unassigned) [Compound 9-A] was tested. Which Dmax did it give?
**A.** Its Dmax is 57%.

Same assay, conditions: Table 1; HT-1080 SALL4 HiBiT reporter cells; performed once with technical duplicates, some compounds tested on different days; read-out: HiBiT SALL4: DC50

**Q.** `N#Cc1ccc(N2CCN(Cc3ccc(Cc4ccc5c6c(cc(F)cc46)C(=O)N5[C@@H]4CCC(=O)NC4=O)cc3)CC2)c(F)c1` (single isomer, unassigned) [Compound 9-A] was tested. Which DC50 did it give?
**A.** Its DC50 is 328 nM.

**Q.** With `N#Cc1ccc2c(c1)OC[C@H]1CN(Cc3ccc(Cc4ccc5c6c(cc(F)cc46)C(=O)N5C4CCC(=O)NC4=O)cc3)CCN21` (stereo partly shown) [Compound 1] as the compound, how does the DC50 read?
**A.** Its DC50 is 117 nM.

**Q.** Which DC50 does the source give for `N#Cc1ccc2c(c1)OC[C@H]1CN(Cc3ccc(Cc4ccc5c6c(cc(F)cc46)C(=O)N5C4CCC(=O)NC4=O)cn3)CCN21` (stereo partly shown) [Compound 2] here?
**A.** Its DC50 is 400 nM.

**Q.** `N#Cc1ccc2c(c1)OC[C@H]1CN(Cc3ccc(Cc4ccc5c6c(cccc46)C(=O)N5C4CCC(=O)NC4=O)cc3)CCN21` (stereo partly shown) [Compound 3] was tested. Which DC50 did it give?
**A.** Its DC50 is 2.4 nM.

**Q.** How did the DC50 turn out when `N#Cc1cnc2c(c1)OC[C@H]1CN(Cc3ccc(Cc4ccc5c6c(cccc46)C(=O)N5C4CCC(=O)NC4=O)c(F)c3)CCN21` (stereo partly shown) [Compound 4] was run?
**A.** The DC50 was 1 nM.

Same assay, conditions: Table 2; HT-1080 SALL4 HiBiT reporter cells; all compounds tested on the same day; read-out: HiBiT SALL4: DC50

**Q.** With `N#Cc1ccc(N2CCN(Cc3ccc(Cc4ccc5c6c(cc(F)cc46)C(=O)N5[C@@H]4CCC(=O)NC4=O)cc3)CC2)c(F)c1` (single isomer, unassigned) [Compound 9-A] as the compound, how does the DC50 read?
**A.** Its DC50 is 292 nM.

The compounds below were run against T1, HiBiT-tagged IKZF1 (assay: IKZF1 protein degradation kinetics (IKZF1 HiBiT degradation assay, incubation 1, 2 or 4 hours)). Conditions: after 1 hour of compound incubation.
Assay type: cell-based
From the text: The following is a general method for testing compounds-induced degradation of HiBiT-tagged IKZF1 or SALL4 overexpressed in a human cell line, for example, the HT-1080 cell line (American Type Culture Collection (ATCC), catalog number CCL-121). The HT-1080 IKZF1 (or SALL4) HiBiT reporter cell line was engineered via lentiviral transduction to stably overexpress GSPT1 (Δ1-138)/G575N and HiBiT-tagged IKZF1 or SALL4. The HT-1080 IKZF1 (or SALL4) HiBiT reporter cell line was maintained in DMEM media supplemented with 10% fetal bovine serum, IX sodium pyruvate, 1× non-essential amino acids, IX glutamine, 100 U/ml penicillin, and 100 μg/mL streptomycin. The HT-1080 IKZF1 (or SALL4) HiBiT reporter cells were seeded into 384-well plates (Cat #3764, Corning) pre-spotted with DMSO or test compounds. Increasing concentrations of test compounds (ranging from 15.81 pM to 500 nM or from 0.3162 nM to 10 μM at a 3.162-fold increment) or DMSO were dispensed into an empty 384-well plate using an Echo 650 Acoustic Liquid Handler (Beckman Coulter). About 10,000 cells in complete DMEM cell culture media were seeded per well. Assay plates were incubated at 37° C. with 5% CO2 for hours, followed by the assessment of IKZF1 or SALL4 degradation using the Nano-Glo HiBiT Lytic Detection Reagent (Cat #N3050, Promega) according to the manufacturer's instruction. Luminescence was then measured with an EnVision plate reader (PerkinElmer) or a PHERAstar plate reader (BMG Labtech). All IKZF1 or SALL4 degradation curves were processed using Collaborative Drug Discovery Vault softwares. IKZF1 or SALL4 levels in compound-treated wells were normalized to that of DMSO control and expressed as Percent of Control (PoC, y). A four Parameter Logistic Model was used to determine the compound's EC50 and DC50, using the following equation: […]
The IKZF1 protein degradation kinetics of compounds 9-B and 9-A was evaluated using the IKZF1 HiBiT degradation assay as described above except that the incubation time was changed to 1, 2 or 4 hours.

**Q.** With `N#Cc1ccc(N2CCN(Cc3ccc(Cc4ccc5c6c(cc(F)cc46)C(=O)N5[C@@H]4CCC(=O)NC4=O)cc3)CC2)c(F)c1` (single isomer, unassigned) [Compound 9-A] as the compound, how does the DC50 read?
**A.** The DC50 was roughly 8 nM.

**Q.** And the Dmax?
**A.** The Dmax was roughly 68%.

Same assay, conditions: after 4 hours of incubation

**Q.** What does the source list for `N#Cc1ccc(N2CCN(Cc3ccc(Cc4ccc5c6c(cc(F)cc46)C(=O)N5[C@@H]4CCC(=O)NC4=O)cc3)CC2)c(F)c1` (single isomer, unassigned) [Compound 9-A]?
**A.** DC50: 0.6 nM; Dmax: 88%
